The Ki is the dissociation constant of the complex between target and ligand, obtained from inhibition or displacement. High values mean lower affinity, low ones higher affinity.

Here are results for two compounds from BindingDB's records for patent US9675697 (University of Michigan, 2017).

The target of this experiment is Bromodomain-containing protein 4 (Homo sapiens, UniProt O60885). Briefly: FP Competitive Binding Assay (No.350). The conditions noted are these: 25 °C. The protocol: Fluorescence Polarization (FP) competitive binding studies (see above) were carried out using the FAM labeled fluorescent probe Cpd. No. 350 to determine binding affinities of representative compounds to both BD1 and BD2 of BRD2, BRD3, and BRD4 proteins. Equilibrium dissociation constants (Id) values of Cpd. […] Final Cpd. […] Kd values of Cpd.

Turning to `COc1cc2c(cc1-c1c(C)noc1C)[nH]c1nc(C)nc(-c3ccc(NC(=O)N4CCN(C)CC4)c4ccccc34)c12` [US9675697, Cpd. No. 316], the Ki came out at 2.9 nM. The compound `COc1cc2c(cc1-c1c(C)noc1C)[nH]c1nc(C)nc(-c3ccc(NC(=O)N4CCN(C5COC5)CC4)c4ccccc34)c12` [US9675697, Cpd. No. 317] had a Ki of 7.1 nM.
